Data reported in PMC5949348, “The Metabolism of Separase Inhibitor Sepin-1 in Human, Mouse, and Rat Liver Microsomes” (Frontiers in Pharmacology, 2018).

Experiments:
[1] = Metabolism of sepin-1 in HLM, MLM and RLM (metabolite profiling, UHPLC-QTOFMS); assay type: in vitro ADME, human, mouse, rat; settings: 30 min; for Source (liver microsomes in which the metabolite was found): 30 μM sepin-1, 1.0 mg microsomes, NADPH 1.0 mM, 37°C; for Relative abundance of metabolite across HLM, MLM and RLM (in words): 30 μM sepin-1, NADPH 1.0 mM
Method: (§1) Incubations were conducted in 1× phosphate-buffered saline (1× PBS, pH 7.4), containing 30 μM sepin-1, 1.0 mg HLM, MLM, RLM, or 2 pmol of each cDNA-expressed P450 enzyme (control, CYP1A2, 2A6, 2B6, 2C8, 2C9, 2C19, 2D6, 2E1, and CYP3A4) in a final volume of 190 μl. After 5 min of pre-incubation at 37°C, the reaction was initiated by adding 10 μl of 20 mM NADPH (final concentration 1.0 mM) and continued for 30 min, with shaking at 37°C. Incubations lacking NADPH served as controls. Reactions were terminated with 200 μl of ice-cold methanol, followed by vortexing for 30 s and centrifuging at 15,000 × g for 15 min. Each supernatant was transferred to an auto sampler vial, and 5.0 μl was injected on to UHPLC coupled with a QTOFMS system for metabolite analysis. Incubations were conducted in quadruplicate for HLM, in triplicate for MLM and RLM, and in duplicate for cDNA-expressed P450 enzymes.
(§2) The separation of sepin-1 and its metabolites was achieved using a 1260 Infinity Binary LC System (Agilent Technologies, Santa Clara, CA, United States) equipped with 100 mm × 2.1 mm (Agilent XDB C18) column. The column temperature was maintained at 40°C. The flow rate was 0.3 ml/min, with a gradient ranging from 2% to 98% aqueous acetonitrile containing 0.1% formic acid in a 15-min run. QTOFMS was operated in a positive mode with electrospray ionization. Ultra-high pure nitrogen was applied as the drying gas (12 l/min) and the collision gas. The drying gas temperature was set at 325°C, and the nebulizer pressure was kept at 35 psi. The capillary voltages were set at 3.5 kV. During MS, real-time mass correction and accurate mass were achieved by continuously measuring standard reference ions at m/z 121.0508 and 922.0098 in the positive mode. The MS/MS of sepin-1 metabolites was performed in a targeted mode with a default isolation width of m/z 4 and collision energy ramp ranging from 10 to 45 V.
Mass chromatograms and mass spectra were acquired by MassHunter Workstation Data Acquisition Software (Agilent, Santa Clara, CA, United States) in centroid and profile formats from m/z 100 to 1000. The acquisition rate was set as 1.5 spectra per second. Centroid and integrated mass chromatographic data were processed by Mass Profinder and Mass Profiler Professional Software (Agilent, Santa Clara, CA, United States) to generate a multivariate data matrix. The corresponding data matrices were then exported into SIMCA13 (Umetrics, Kinnelon, NJ, United States) for multivariate data analysis. OPLS-DA was conducted on Pareto-scaled data. For the QQQMS data, QQQ Quantitative Analysis Software (Agilent, Santa Clara, CA, United States) was used for metabolite analysis. […] Statistical differences between two groups were determined by Student’s t-test.

[2] = Metabolism of sepin-1 in human liver microsomes; assay type: in vitro ADME; settings: HLM, 30 μM sepin-1, with or without NADPH 1.0 mM
Method: as §1
as §2, with “During MS, real-time mass correction and accurate mass were achieved by continuously measuring standard reference ions at m/z 121.0508 and 922.0098 in the positive mode. The MS/MS of sepin-1 metabolites was performed in a targeted mode with a default isolation width of m/z 4 and collision energy ramp ranging from 10 to 45 V.” left out
Mass chromatograms and mass spectra were acquired by MassHunter Workstation Data Acquisition Software (Agilent, Santa Clara, CA, United States) in centroid and profile formats from m/z 100 to 1000. […] For the QQQMS data, QQQ Quantitative Analysis Software (Agilent, Santa Clara, CA, United States) was used for metabolite analysis. […] Statistical differences between two groups were determined by Student’s t-test.

[3] = Sepin-1 metabolism with cDNA-expressed P450 control; assay type: in vitro ADME, human; settings: 30 μM sepin-1, control enzyme preparation, NADPH 1.0 mM, 30 min; unit not given, highest enzyme per metabolite = 100.0
Method: as §1
(§3) The separation of sepin-1 and its metabolites was achieved using a 1260 Infinity Binary LC System (Agilent Technologies, Santa Clara, CA, United States) equipped with 100 mm × 2.1 mm (Agilent XDB C18) column. The column temperature was maintained at 40°C. The flow rate was 0.3 ml/min, with a gradient ranging from 2% to 98% aqueous acetonitrile containing 0.1% formic acid in a 15-min run. QTOFMS was operated in a positive mode with electrospray ionization. […]

[4] = biological target: T1, CYP1A2 (Homo sapiens, UniProt P05177); assay: Sepin-1 metabolism by recombinant CYP1A2; assay type: in vitro ADME; settings: 30 μM sepin-1, 2 pmol cDNA-expressed enzyme, NADPH 1.0 mM, 30 min; unit not given, highest enzyme per metabolite = 100.0
T1 construct: purchased XenoTech
T1 sequence (P05177 1-516): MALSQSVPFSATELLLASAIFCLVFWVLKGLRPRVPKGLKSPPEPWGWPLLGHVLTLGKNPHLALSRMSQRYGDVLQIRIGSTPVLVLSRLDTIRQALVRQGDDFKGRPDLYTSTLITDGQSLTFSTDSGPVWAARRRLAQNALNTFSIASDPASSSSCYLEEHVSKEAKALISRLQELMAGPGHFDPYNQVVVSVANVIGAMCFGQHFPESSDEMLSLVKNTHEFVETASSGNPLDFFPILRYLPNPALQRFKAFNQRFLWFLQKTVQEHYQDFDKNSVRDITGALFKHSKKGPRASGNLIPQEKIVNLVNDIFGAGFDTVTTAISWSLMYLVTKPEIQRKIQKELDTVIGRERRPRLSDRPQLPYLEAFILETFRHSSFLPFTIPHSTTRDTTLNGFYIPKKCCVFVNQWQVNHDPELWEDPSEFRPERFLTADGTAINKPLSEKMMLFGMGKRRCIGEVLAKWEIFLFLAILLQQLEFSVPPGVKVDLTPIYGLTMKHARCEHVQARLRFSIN
Method: as §1, §3

[5] = tested on: T2, CYP2A6; assay: Sepin-1 metabolism by recombinant CYP2A6; assay type: in vitro ADME, human; settings: 30 μM sepin-1, 2 pmol cDNA-expressed enzyme, NADPH 1.0 mM, 30 min; unit not given, highest enzyme per metabolite = 100.0
T2 construct: purchased XenoTech
Method: as §1, §3

[6] = biological target: T3, CYP2B6 (Homo sapiens, UniProt P20813); assay: Sepin-1 metabolism by recombinant CYP2B6; assay type: in vitro ADME; settings: 30 μM sepin-1, 2 pmol cDNA-expressed enzyme, NADPH 1.0 mM, 30 min; unit not given, highest enzyme per metabolite = 100.0
T3 construct: purchased XenoTech
T3 sequence (P20813 1-491): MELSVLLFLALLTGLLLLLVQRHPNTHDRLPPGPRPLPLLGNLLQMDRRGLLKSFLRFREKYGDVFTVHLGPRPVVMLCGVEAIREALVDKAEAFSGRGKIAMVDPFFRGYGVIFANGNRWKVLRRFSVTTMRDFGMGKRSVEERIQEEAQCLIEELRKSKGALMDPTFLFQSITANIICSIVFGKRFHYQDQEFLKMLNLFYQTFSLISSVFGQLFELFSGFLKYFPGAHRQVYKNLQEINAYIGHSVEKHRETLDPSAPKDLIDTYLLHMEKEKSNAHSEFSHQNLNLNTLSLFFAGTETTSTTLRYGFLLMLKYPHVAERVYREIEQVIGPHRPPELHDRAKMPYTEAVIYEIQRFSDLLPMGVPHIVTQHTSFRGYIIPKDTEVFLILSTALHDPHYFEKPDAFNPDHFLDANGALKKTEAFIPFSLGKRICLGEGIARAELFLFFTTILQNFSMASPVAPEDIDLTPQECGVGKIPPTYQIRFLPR
Method: as §1, §3

[7] = biological target: T4, CYP2C8 (Homo sapiens, UniProt P10632); assay: Sepin-1 metabolism by recombinant CYP2C8; assay type: in vitro ADME; settings: 30 μM sepin-1, 2 pmol cDNA-expressed enzyme, NADPH 1.0 mM, 30 min; unit not given, highest enzyme per metabolite = 100.0
T4 construct: purchased XenoTech
T4 sequence (P10632 1-490): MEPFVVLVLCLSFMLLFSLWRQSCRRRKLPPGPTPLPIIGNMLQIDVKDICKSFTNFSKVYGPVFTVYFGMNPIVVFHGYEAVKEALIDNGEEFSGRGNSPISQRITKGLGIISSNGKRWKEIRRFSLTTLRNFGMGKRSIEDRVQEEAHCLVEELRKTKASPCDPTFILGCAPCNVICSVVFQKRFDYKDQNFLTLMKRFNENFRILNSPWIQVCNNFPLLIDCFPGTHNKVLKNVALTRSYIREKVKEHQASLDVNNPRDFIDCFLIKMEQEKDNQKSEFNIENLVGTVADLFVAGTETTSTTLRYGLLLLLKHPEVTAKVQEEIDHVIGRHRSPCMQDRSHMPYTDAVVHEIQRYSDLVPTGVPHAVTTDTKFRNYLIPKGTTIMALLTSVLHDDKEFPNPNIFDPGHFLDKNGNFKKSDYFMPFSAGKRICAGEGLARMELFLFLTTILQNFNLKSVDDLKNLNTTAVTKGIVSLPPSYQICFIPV
Method: as §1, §3

[8] = biological target: T5, CYP2C9 (Homo sapiens, UniProt P11712); assay: Sepin-1 metabolism by recombinant CYP2C9; assay type: in vitro ADME; settings: 30 μM sepin-1, 2 pmol cDNA-expressed enzyme, NADPH 1.0 mM, 30 min; unit not given, highest enzyme per metabolite = 100.0
T5 construct: purchased XenoTech
T5 sequence (P11712 whole entry): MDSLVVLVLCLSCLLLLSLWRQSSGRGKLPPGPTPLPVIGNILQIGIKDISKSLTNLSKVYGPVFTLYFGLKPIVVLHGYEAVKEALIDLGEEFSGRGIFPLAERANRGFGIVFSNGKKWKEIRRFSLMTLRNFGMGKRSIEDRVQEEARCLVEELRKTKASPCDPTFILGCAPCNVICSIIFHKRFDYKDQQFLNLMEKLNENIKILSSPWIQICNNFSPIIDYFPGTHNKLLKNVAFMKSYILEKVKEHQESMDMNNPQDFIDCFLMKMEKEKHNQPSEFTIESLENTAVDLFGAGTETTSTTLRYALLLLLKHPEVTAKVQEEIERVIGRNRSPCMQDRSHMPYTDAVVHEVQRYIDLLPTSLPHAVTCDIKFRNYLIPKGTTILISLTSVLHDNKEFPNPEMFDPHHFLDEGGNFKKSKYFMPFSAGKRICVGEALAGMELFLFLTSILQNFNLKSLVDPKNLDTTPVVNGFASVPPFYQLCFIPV
Method: as §1, §3

[9] = biological target: T6, CYP2C19 (Homo sapiens, UniProt P33261); assay: Sepin-1 metabolism by recombinant CYP2C19; assay type: in vitro ADME; settings: 30 μM sepin-1, 2 pmol cDNA-expressed enzyme, NADPH 1.0 mM, 30 min; unit not given, highest enzyme per metabolite = 100.0
T6 construct: purchased XenoTech
T6 sequence (P33261 whole entry): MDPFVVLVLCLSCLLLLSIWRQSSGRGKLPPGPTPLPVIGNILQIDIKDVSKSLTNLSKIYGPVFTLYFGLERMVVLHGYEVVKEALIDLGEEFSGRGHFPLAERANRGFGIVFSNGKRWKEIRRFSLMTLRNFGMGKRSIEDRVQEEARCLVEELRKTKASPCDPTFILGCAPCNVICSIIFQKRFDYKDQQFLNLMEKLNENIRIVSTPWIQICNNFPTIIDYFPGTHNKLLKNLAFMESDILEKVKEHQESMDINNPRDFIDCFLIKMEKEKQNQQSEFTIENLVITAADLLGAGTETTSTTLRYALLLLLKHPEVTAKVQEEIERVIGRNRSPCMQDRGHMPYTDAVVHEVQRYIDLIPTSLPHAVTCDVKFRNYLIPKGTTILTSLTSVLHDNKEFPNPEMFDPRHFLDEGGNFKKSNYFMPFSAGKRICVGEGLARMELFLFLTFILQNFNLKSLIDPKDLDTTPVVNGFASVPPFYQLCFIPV
Method: as §1, §3

[10] = biological target: T7, CYP2D6 (Homo sapiens, UniProt P10635); assay: Sepin-1 metabolism by recombinant CYP2D6; assay type: in vitro ADME; settings: 30 μM sepin-1, 2 pmol cDNA-expressed enzyme, NADPH 1.0 mM, 30 min; unit not given, highest enzyme per metabolite = 100.0
T7 construct: purchased XenoTech
T7 sequence (P10635 whole entry): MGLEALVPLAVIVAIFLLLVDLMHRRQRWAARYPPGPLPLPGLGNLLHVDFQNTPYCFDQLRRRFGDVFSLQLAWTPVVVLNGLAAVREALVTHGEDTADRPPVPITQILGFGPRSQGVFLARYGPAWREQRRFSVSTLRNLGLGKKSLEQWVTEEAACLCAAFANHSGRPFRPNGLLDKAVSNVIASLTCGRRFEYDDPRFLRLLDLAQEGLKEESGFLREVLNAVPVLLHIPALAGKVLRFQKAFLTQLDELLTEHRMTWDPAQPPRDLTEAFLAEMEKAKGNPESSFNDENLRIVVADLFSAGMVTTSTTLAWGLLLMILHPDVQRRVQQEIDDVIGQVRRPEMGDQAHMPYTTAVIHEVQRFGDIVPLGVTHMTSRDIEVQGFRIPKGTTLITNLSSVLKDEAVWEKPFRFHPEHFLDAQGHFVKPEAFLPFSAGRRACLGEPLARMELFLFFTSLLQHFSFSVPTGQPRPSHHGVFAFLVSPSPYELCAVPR
Method: as §1, §3

[11] = tested on: T8, CYP2E1; assay: Sepin-1 metabolism by recombinant CYP2E1; assay type: in vitro ADME, human; settings: 30 μM sepin-1, 2 pmol cDNA-expressed enzyme, NADPH 1.0 mM, 30 min; unit not given, highest enzyme per metabolite = 100.0
T8 construct: purchased XenoTech
Method: as §1, §3

[12] = biological target: T9, CYP3A4 (Homo sapiens, UniProt P08684); assay: Sepin-1 metabolism by recombinant CYP3A4; assay type: in vitro ADME; settings: 30 μM sepin-1, 2 pmol cDNA-expressed enzyme, NADPH 1.0 mM, 30 min; unit not given, highest enzyme per metabolite = 100.0
T9 construct: purchased XenoTech
T9 sequence (P08684 whole entry): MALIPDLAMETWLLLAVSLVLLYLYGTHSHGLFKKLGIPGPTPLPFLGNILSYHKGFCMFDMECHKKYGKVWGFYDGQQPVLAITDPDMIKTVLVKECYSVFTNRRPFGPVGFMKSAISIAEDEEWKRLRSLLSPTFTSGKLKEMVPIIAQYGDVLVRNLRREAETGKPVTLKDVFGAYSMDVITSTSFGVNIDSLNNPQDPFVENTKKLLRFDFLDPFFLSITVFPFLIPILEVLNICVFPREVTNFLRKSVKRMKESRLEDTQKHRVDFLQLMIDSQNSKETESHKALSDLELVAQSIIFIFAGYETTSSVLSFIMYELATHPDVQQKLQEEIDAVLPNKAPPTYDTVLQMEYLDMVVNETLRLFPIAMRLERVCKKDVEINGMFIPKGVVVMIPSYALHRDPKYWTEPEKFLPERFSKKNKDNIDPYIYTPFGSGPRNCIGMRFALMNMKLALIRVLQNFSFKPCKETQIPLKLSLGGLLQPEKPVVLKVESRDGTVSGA
Method: as §1, §3

**Q.** Which “Source (liver microsomes in which the metabolite was found)” value [1] does the source give for `CC1(C)[N+]([O-])=c2ccc(N)cc2=[N+]1[O-]` [M2] here?
**A.** Its value is “HLM, MLM, RLM”.

**Q.** And the “Relative abundance of metabolite across HLM, MLM and RLM (in words)” value [1]?
**A.** The value was “dominant metabolites in all the three species”.

**Q.** What about the “NADPH dependence of metabolite formation” value [2] of the same molecule?
**A.** Its value is “NADPH dependent”.

**Q.** And the “Formation of metabolite, Control (Role of P450s in the metabolism of sepin-1)” value [3]?
**A.** Its value is 41.5.

**Q.** And the “Formation of metabolite by CYP1A2 (Role of P450s in the metabolism of sepin-1)” value [4]?
**A.** The value was 50.5.

**Q.** What about the “Formation of metabolite by CYP2A6 (Role of P450s in the metabolism of sepin-1)” value [5] of the same molecule?
**A.** The value was 76.1.

**Q.** And the “Formation of metabolite by CYP2B6 (Role of P450s in the metabolism of sepin-1)” value [6]?
**A.** Its value is 85.9.

**Q.** And the “Formation of metabolite by CYP2C8 (Role of P450s in the metabolism of sepin-1)” value [7]?
**A.** Its value is 63.6.

**Q.** And the “Formation of metabolite by CYP2C9 (Role of P450s in the metabolism of sepin-1)” value [8]?
**A.** Its value is 57.2.

**Q.** What about the “Formation of metabolite by CYP2C19 (Role of P450s in the metabolism of sepin-1)” value [9] of the same molecule?
**A.** The value was 67.5.

**Q.** And the “Formation of metabolite by CYP2D6 (Role of P450s in the metabolism of sepin-1)” value [10]?
**A.** Its value is 100.0.

**Q.** And the “Formation of metabolite by CYP2E1 (Role of P450s in the metabolism of sepin-1)” value [11]?
**A.** The value was 53.2.

**Q.** And the “Formation of metabolite by CYP3A4 (Role of P450s in the metabolism of sepin-1)” value [12]?
**A.** The value was 95.3.

**Q.** What does the source list for `CC1(C)Nc2ccc([N+](=O)[O-])cc2N1` [M1]?
**A.** Source (liver microsomes in which the metabolite was found) [1]: HLM, MLM, RLM; Relative abundance of metabolite across HLM, MLM and RLM (in words) [1]: dominant metabolites in all the three species; NADPH dependence of metabolite formation [2]: NADPH dependent; Formation of metabolite, Control (Role of P450s in the metabolism of sepin-1) [3]: 79.5; Formation of metabolite by CYP1A2 (Role of P450s in the metabolism of sepin-1) [4]: 86.3; Formation of metabolite by CYP2A6 (Role of P450s in the metabolism of sepin-1) [5]: 90.8; Formation of metabolite by CYP2B6 (Role of P450s in the metabolism of sepin-1) [6]: 91.9; Formation of metabolite by CYP2C8 (Role of P450s in the metabolism of sepin-1) [7]: 91.3; Formation of metabolite by CYP2C9 (Role of P450s in the metabolism of sepin-1) [8]: 90.4; Formation of metabolite by CYP2C19 (Role of P450s in the metabolism of sepin-1) [9]: 90.8; Formation of metabolite by CYP2D6 (Role of P450s in the metabolism of sepin-1) [10]: 96.9; Formation of metabolite by CYP2E1 (Role of P450s in the metabolism of sepin-1) [11]: 89.9; Formation of metabolite by CYP3A4 (Role of P450s in the metabolism of sepin-1) [12]: 100.0
